This passage reports ring closure, product found and ring closure, conversion by HPLC results from article PMC6208650.

The nature of this data set: on-resin lactamisation, Asp side-chain COOH (C-terminal residue, anchored via Rink amide) + alpha-NH2 of N-terminal Dap(Boc); HATU/DIEA 1.05:2.1 equiv, overnight; then TFA cleavage. Particulars: 22-membered ring, NMP, 57.0 mM; for ring closure, product found: scale: 1 = cyclic product is largest ESI-MS signal, 0 = linear; for ring closure, conversion by HPLC: scale: % crude HPLC purity, 320 nm area of tallest peak or peak cluster.

The mark [1] stands for this setting: from CC(C)(C)OC(=O)NC[C@H](N)C(=O)N[C@@H](CNC(=O)c1cnc2ccccc2n1)C(=O)NCC(=O)N[C@@H](CNC(=O)c1cnc2ccccc2n1)C(=O)N[C@@H](CNC(=O)c1cnc2ccccc2n1)C(=O)NCC(=O)N[C@@H](CC(=O)O)C(N)=O.
The mark [2] stands for this setting: from CC(C)(C)OC(=O)NC[C@H](N)C(=O)NCC(=O)N[C@@H](CNC(=O)c1cnc2ccccc2n1)C(=O)NCC(=O)N[C@@H](CNC(=O)c1cnc2ccccc2n1)C(=O)N[C@@H](CNC(=O)c1cnc2ccccc2n1)C(=O)N[C@@H](CC(=O)O)C(N)=O.
Where [3] appears, read: from CC(C)(C)OC(=O)NC[C@H](N)C(=O)N[C@@H](CNC(=O)c1cnc2ccccc2n1)C(=O)N[C@@H](CNC(=O)c1cnc2ccccc2n1)C(=O)NCC(=O)NCC(=O)N[C@@H](CNC(=O)c1cnc2ccccc2n1)C(=O)N[C@@H](CC(=O)O)C(N)=O.
The mark [4] stands for this setting: from CC(C)(C)OC(=O)NC[C@H](N)C(=O)NCC(=O)N[C@@H](CNC(=O)c1cnc2ccccc2n1)C(=O)NCC(=O)N[C@@H](CNC(=O)c1cnc2ccccc2n1)C(=O)NCC(=O)N[C@@H](CC(=O)O)C(N)=O.
Where [5] appears, read: from CC(C)(C)OC(=O)NC[C@H](N)C(=O)NCC(=O)NCC(=O)NCC(=O)N[C@@H](CNC(=O)c1cnc2ccccc2n1)C(=O)N[C@@H](CNC(=O)c1cnc2ccccc2n1)C(=O)N[C@@H](CC(=O)O)C(N)=O.
Where [6] appears, read: from CC(C)(C)OC(=O)NC[C@H](N)C(=O)N[C@@H](CNC(=O)c1cnc2ccccc2n1)C(=O)NCC(=O)NCC(=O)NCC(=O)N[C@@H](CNC(=O)c1cnc2ccccc2n1)C(=O)N[C@@H](CC(=O)O)C(N)=O.
The mark [7] stands for this setting: from CC(C)(C)OC(=O)NC[C@H](N)C(=O)N[C@@H](CNC(=O)c1cnc2ccccc2n1)C(=O)NCC(=O)N[C@@H](CNC(=O)c1cnc2ccccc2n1)C(=O)NCC(=O)NCC(=O)N[C@@H](CC(=O)O)C(N)=O.
Where [8] appears, read: from CC(C)(C)OC(=O)NC[C@H](N)C(=O)NCC(=O)N[C@@H](CNC(=O)c1cnc2ccccc2n1)C(=O)N[C@@H](CNC(=O)c1cnc2ccccc2n1)C(=O)NCC(=O)N[C@@H](CNC(=O)c1cnc2ccccc2n1)C(=O)N[C@@H](CC(=O)O)C(N)=O.
Where [9] appears, read: from CC(C)(C)OC(=O)NC[C@H](N)C(=O)NCC(=O)NCC(=O)N[C@@H](CNC(=O)c1cnc2ccccc2n1)C(=O)NCC(=O)N[C@@H](CNC(=O)c1cnc2ccccc2n1)C(=O)N[C@@H](CC(=O)O)C(N)=O.
The mark [10] stands for this setting: from CC(C)(C)OC(=O)NC[C@H](N)C(=O)N[C@@H](CNC(=O)c1cnc2ccccc2n1)C(=O)NCC(=O)N[C@@H](CNC(=O)c1cnc2ccccc2n1)C(=O)NCC(=O)N[C@@H](CNC(=O)c1cnc2ccccc2n1)C(=O)N[C@@H](CC(=O)O)C(N)=O.
Where [11] appears, read: from CC(C)(C)OC(=O)NC[C@H](N)C(=O)NCC(=O)NCC(=O)N[C@@H](CNC(=O)c1cnc2ccccc2n1)C(=O)NCC(=O)NCC(=O)N[C@@H](CC(=O)O)C(N)=O.

Take `NC[C@@H]1NC(=O)C[C@@H](C(N)=O)NC(=O)CNC(=O)[C@H](CNC(=O)c2cnc3ccccc3n2)NC(=O)[C@H](CNC(=O)c2cnc3ccccc3n2)NC(=O)CNC(=O)[C@H](CNC(=O)c2cnc3ccccc3n2)NC1=O`: under setting [1], the ring closure, product found was 1 and the ring closure, conversion by HPLC was 81.

Turning to `NC[C@@H]1NC(=O)C[C@@H](C(N)=O)NC(=O)[C@H](CNC(=O)c2cnc3ccccc3n2)NC(=O)[C@H](CNC(=O)c2cnc3ccccc3n2)NC(=O)CNC(=O)[C@H](CNC(=O)c2cnc3ccccc3n2)NC(=O)CNC1=O`, under setting [2], the ring closure, product found came out at 0 and the ring closure, conversion by HPLC is less than 39.

As to `NC[C@@H]1NC(=O)C[C@@H](C(N)=O)NC(=O)[C@H](CNC(=O)c2cnc3ccccc3n2)NC(=O)CNC(=O)CNC(=O)[C@H](CNC(=O)c2cnc3ccccc3n2)NC(=O)[C@H](CNC(=O)c2cnc3ccccc3n2)NC1=O`, under setting [3], the ring closure, product found is 1 and the ring closure, conversion by HPLC was 48.

As to `NC[C@@H]1NC(=O)C[C@@H](C(N)=O)NC(=O)CNC(=O)[C@H](CNC(=O)c2cnc3ccccc3n2)NC(=O)CNC(=O)[C@H](CNC(=O)c2cnc3ccccc3n2)NC(=O)CNC1=O`, under setting [4], the ring closure, product found turned out to be 1 and the ring closure, conversion by HPLC turned out to be 79.

Regarding `NC[C@@H]1NC(=O)C[C@@H](C(N)=O)NC(=O)[C@H](CNC(=O)c2cnc3ccccc3n2)NC(=O)[C@H](CNC(=O)c2cnc3ccccc3n2)NC(=O)CNC(=O)CNC(=O)CNC1=O`, under setting [5], the ring closure, product found was determined as 1 and the ring closure, conversion by HPLC stood at 75.

Take `NC[C@@H]1NC(=O)C[C@@H](C(N)=O)NC(=O)[C@H](CNC(=O)c2cnc3ccccc3n2)NC(=O)CNC(=O)CNC(=O)CNC(=O)[C@H](CNC(=O)c2cnc3ccccc3n2)NC1=O`: under setting [6], the ring closure, product found is 1 and the ring closure, conversion by HPLC is 64.

On to `NC[C@@H]1NC(=O)C[C@@H](C(N)=O)NC(=O)CNC(=O)CNC(=O)[C@H](CNC(=O)c2cnc3ccccc3n2)NC(=O)CNC(=O)[C@H](CNC(=O)c2cnc3ccccc3n2)NC1=O`, for which, under setting [7], the ring closure, product found came to 1 and the ring closure, conversion by HPLC was determined as 39.

As to `NC[C@@H]1NC(=O)C[C@@H](C(N)=O)NC(=O)[C@H](CNC(=O)c2cnc3ccccc3n2)NC(=O)CNC(=O)[C@H](CNC(=O)c2cnc3ccccc3n2)NC(=O)[C@H](CNC(=O)c2cnc3ccccc3n2)NC(=O)CNC1=O`, under setting [8], the ring closure, product found is 0 and the ring closure, conversion by HPLC is less than 34.

As for `NC[C@@H]1NC(=O)C[C@@H](C(N)=O)NC(=O)[C@H](CNC(=O)c2cnc3ccccc3n2)NC(=O)CNC(=O)[C@H](CNC(=O)c2cnc3ccccc3n2)NC(=O)CNC(=O)CNC1=O`, under setting [9], the ring closure, product found was determined as 1 and the ring closure, conversion by HPLC came out at 76.

In the case of `NC[C@@H]1NC(=O)C[C@@H](C(N)=O)NC(=O)[C@H](CNC(=O)c2cnc3ccccc3n2)NC(=O)CNC(=O)[C@H](CNC(=O)c2cnc3ccccc3n2)NC(=O)CNC(=O)[C@H](CNC(=O)c2cnc3ccccc3n2)NC1=O`, under setting [10], the ring closure, product found came to 1 and the ring closure, conversion by HPLC is 24.

Consider `NC[C@@H]1NC(=O)C[C@@H](C(N)=O)NC(=O)CNC(=O)CNC(=O)[C@H](CNC(=O)c2cnc3ccccc3n2)NC(=O)CNC(=O)CNC1=O` [H-Dap(Boc)-Gly-Gly-Dap(Qxc)-Gly-Gly-Asp(OH)-NH-Rink resin], for which, under setting [11], the ring closure, product found worked out at 1 and the ring closure, conversion by HPLC worked out at 84.
